For 1 molecule, IC50 results are on record in BindingDB's records for doi:10.1016/S0960-894X(00)80270-X (1991).

The assay in a line: Compound was tested for inhibitory activity against fucosyltransferase.

SMILES strings stand for the structures.

Take `OC[C@@H]1NC[C@@H](O)[C@@H](O)[C@@H]1O[C@@H]1O[C@@H](CO)[C@H](O)[C@H](O)[C@@H]1O`: the IC50 was 40 mM.

Broadly, the IC50 is the concentration that inhibits the measured activity by half.
